From ChEMBL document CHEMBL1151356, “An investigation of the antitumor activity of Sesbania drummondii” (1981)
Active and inactive are the calls of the source. The rule behind the calls is not given here.

Tested on: P388
Assay: In vivo cytotoxicity against mouse P388 cells up to 1.4 mg/kg relative to control
Type: functional, organism-based
Design: dose 1.4 mg/kg

O=C1NC(=O)[C@@]2(CC[C@@H](O)C2)c2ccncc21
Activity: inactive
